The text below walks through data of patent US20210369874A1, “COMPOSITION FOR DETECTING BIOFILMS ON VIABLE TISSUES” (CONVATEC TECHNOLOGIES INC., priority 2010, published 2021).

Several values for one entry are separate records, joined by “and”; a condition that tells them apart may be missing. Equal values may be shown once.

What all share (type): cell-based
Assay [1] concerns mixed biofilms of Staphylococcus aureus and Pseudomonas aeruginosa. As to the kind of experiment: Assessment of biofilm stains using the constant-depth biofilm fermenter (CDFF). The note with it: 100 μM stain, two minutes, 4-day mixed biofilms, n=6. The text has this: A constant depth biofilm fermenter (CDFF) was used to culture 4-day mixed biofilms of Staphylococcus aureus and Pseudomonas aeruginosa. Briefly, biofilms were formed in recesses in 15 PTFE pans around the rim of a rotating steel turntable onto which inoculum or sterile growth media was allowed to steadily drip. A scraper bar distributed bacterial inoculum or media over the pans as the turntable rotated, maintaining the biofilms at a steady depth. Each pan contained 5 removable plugs, 4 mm in diameter which were recessed to a depth of 300 μm. The resulting biofilms that grew in the plug recesses were reproducible in terms of appearance and microbiological composition and could be removed from the CDFF through a sampling port using sterile instruments. […] Absorption spectra of the aspired supernatants were then measured in a spectrophotometer and these spectra compared to spectra of known concentrations (100 μM) of each stain in 2% SDS.

In another assay the test system is S. aureus biofilms. As to the kind of experiment: Rose Bengal staining of biofilms, membrane filter biofilm model (S. aureus). As to conditions: 30 seconds. How it is done: (§1) A membrane filter biofilm model was used to study the effect of Rose Bengal concentration on the efficacy of biofilm staining. Briefly, a 5 μl volume of a 5×10^5 cfu/ml suspension of S. aureus or P. aeruginosa was added to the centre of sterile membrane filter discs (pore size 0.2 μm; Anodise, Whatman) which were placed onto 7 ml volumes of sterile Tryptic Soya Broth in lidded 6-well plates. Samples were incubated for 4 hours (immature biofilms), and 24 and 48 hours (mature biofilms), and excess planktonic cells were rinsed from the filters. The biofilms on the filters were stained by pipetting 2 ml volumes of Rose Bengal (60 μM or 300 μM) or saline (negative control) for 30 seconds, followed by rinsing. Rose Bengal was recovered from the biofilm samples by stomaching and overnight digestion in 2% sodium dodecyl sulphate, centrifugation, then measuring of absorption spectra in a UV-vis spectrophotometer. Rose Bengal uptake per sample was determined by comparison of absorption values with a standard curve of Rose Bengal in 2% SDS. […] Only at the highest concentrations of 300 μM did the immature, 4-hour biofilms appear to be stained, although this was likely due to some staining of the filters themselves. […] This simple method for quantifying the uptake of Rose Bengal by biofilms utilises the absorption spectra of the dye. Using the absorption spectra to quantify the dye is similar to detecting the fluorescence using a light source with optical filters. Uptake could then alternatively be observed qualitatively using the naked eye or by observing the fluorescence emission of the Rose Bengal in conjunction with a light source and optical filter.

The test system of the next assay is P. aeruginosa biofilms. As to the kind of experiment: Rose Bengal staining of biofilms, membrane filter biofilm model (P. aeruginosa). The note with it: 30 seconds. How it is done: as §1
The test system of assay [2] is mixed biofilms of Staphylococcus aureus and Pseudomonas aeruginosa. Nature of the assay: Assessment of biofilm stains using the CDC biofilm reactor. The note with it: 100 μM stain, two minutes, 48 hour mixed biofilms, n=9. As for the experimental part: A Centre for Disease Control (CDC) biofilm reactor was used to culture 48 hour mixed biofilms of Staphylococcus aureus and Pseudomonas aeruginosa. Briefly, biofilms were formed on coupons on reactor rods which were held within the reactor vessel containing a continuously mixed culture of S. aureus and P. aeruginosa at 35° C. Biofilm-containing coupons were removed from the rods, rinsed once by dipping in sterile saline for 5 seconds, then incubated in 10 ml volumes of the following biofilm stains at 100 μM concentration in deionised water, in the dark for two minutes: Erythrosine; Rose Bengal; Alcian Blue; Rhodamine B; Rhodamine 123; Rose Bengal with 2% w/v EDTA and 1% w/v BaCl (RBEB). Following another rinse in saline, nine coupons for each stain were each added to 2 ml volumes of 2% SDS for stomaching at ‘high’ setting for 1 minute then incubated overnight in the dark at 37° C., for digestion. Samples were then spun at 13,000 rpm for 5 minutes to separate the supernatant from digested cell debris. Absorption spectra of the aspired supernatants were then measured in a spectrophotometer and these spectra compared to spectra of known concentrations (100 μM) of each stain in 2% SDS.

The mark [3] stands for this setting: S. aureus biofilm age 4 h, [RB] 60 μM.
Setting [4] is: P. aeruginosa biofilm age 4 h, [RB] 60 μM.

With `CCN(Cc1cccc(S(=O)(=O)[O-])c1)c1ccc(C(=C2C=CC(=[N+](CC)Cc3cccc(S(=O)(=O)[O-])c3)C=C2)c2ccc(O)cc2S(=O)(=O)[O-])cc1.[Na+].[Na+]` [Fast Green], the “effectiveness as stain of biofilms grown in the CDFF (FIG. 1)” value in assay [1] was “most effective stain”.
Take `O=C([O-])c1c(Cl)c(Cl)c(Cl)c(Cl)c1-c1c2cc(I)c(=O)c(I)c-2oc2c(I)c([O-])c(I)cc12.[Na+].[Na+]` [Rose Bengal]: the “Rose Bengal uptake per sample, Avg” value with S. aureus biofilms (setting [3]) is 0; in the assay on S. aureus biofilms (S. aureus biofilm age 4 h, [RB] 300 μM, likely some staining of the filters themselves), 1.56; in the assay with S. aureus biofilms (S. aureus biofilm age 24 h, [RB] 60 μM), 1.85; in the assay on S. aureus biofilms (S. aureus biofilm age 24 h, [RB] 300 μM), 4.44; with S. aureus biofilms (S. aureus biofilm age 48 h, [RB] 60 μM), 1.24; with S. aureus biofilms (S. aureus biofilm age 48 h, [RB] 300 μM), 5.72. Also, the “Rose Bengal uptake per sample, Avg” value with P. aeruginosa biofilms (setting [4]) is given as 0; in the assay with P. aeruginosa biofilms (P. aeruginosa biofilm age 4 h, [RB] 300 μM, likely some staining of the filters themselves), 1.72; in the assay with P. aeruginosa biofilms (P. aeruginosa biofilm age 24 h, [RB] 60 μM), 1.94; in the assay with P. aeruginosa biofilms (P. aeruginosa biofilm age 24 h, [RB] 300 μM) it was 5.10; in the assay with P. aeruginosa biofilms (P. aeruginosa biofilm age 48 h, [RB] 60 μM), 2.39; in the assay with P. aeruginosa biofilms (P. aeruginosa biofilm age 48 h, [RB] 300 μM) it was 7.30. The “Rose Bengal uptake per sample, single replicates 1-3” value in the assay with S. aureus biofilms (setting [3]) was 0; in the assay on S. aureus biofilms (S. aureus biofilm age 4 h, [RB] 300 μM, likely some staining of the filters themselves, listed as RB) it was 1.59 and 1.45 and 1.64; in the assay on S. aureus biofilms (S. aureus biofilm age 24 h, [RB] 60 μM, listed as RB), 1.66 and 1.72 and 2.17; with S. aureus biofilms (S. aureus biofilm age 24 h, [RB] 300 μM, listed as RB), 4.82 and 4.55 and 3.95; in the assay with S. aureus biofilms (S. aureus biofilm age 48 h, [RB] 60 μM, listed as RB) it was 1.22 and 1.12 and 1.37; with S. aureus biofilms (S. aureus biofilm age 48 h, [RB] 300 μM, listed as RB), 6.26 and 5.18 and 5.71. For the same compound, the “Rose Bengal uptake per sample, single replicates 1-3” value is 0 with P. aeruginosa biofilms (setting [4]); 1.52 and 1.76 and 1.88 in the assay with P. aeruginosa biofilms (P. aeruginosa biofilm age 4 h, [RB] 300 μM, likely some staining of the filters themselves, listed as RB); 2.04 and 1.76 and 2.02 with P. aeruginosa biofilms (P. aeruginosa biofilm age 24 h, [RB] 60 μM, listed as RB); 5.05 and 5.84 and 4.41 in the assay with P. aeruginosa biofilms (P. aeruginosa biofilm age 24 h, [RB] 300 μM, listed as RB); 3.15 and 1.66 and 2.37 in the assay with P. aeruginosa biofilms (P. aeruginosa biofilm age 48 h, [RB] 60 μM, listed as RB); 6.20 and 9.01 and 6.69 in the assay on P. aeruginosa biofilms (P. aeruginosa biofilm age 48 h, [RB] 300 μM, listed as RB). The “Rose Bengal uptake by mature biofilms (in words)” value in the assay on S. aureus biofilms (S. aureus, 24 and 48 hours biofilms, 60 μM or 300 μM) is “dye concentration- and biofilm age-dependent manner”; with P. aeruginosa biofilms (P. aeruginosa, 24 and 48 hours biofilms, 60 μM or 300 μM), “dye concentration- and biofilm age-dependent manner”.
Regarding Alcian Blue, the “biofilm staining expressed as ratio of measured absorption: absorption at 100 1.1M (i.e. concentration) (FIG. 2b)” value in assay [2] is “most effective biofilm stain”.
